Assays:
HBeAg = experiment: PHH natural infection assay, HBeAg (alphalisa); format: cell-based, HBV; settings: Hepatitis B virus, Hepatocyte, read-out: HBeAg IC50, HBV-infected primary human hepatocytes, supernatant, alphalisa
Summary of the method: (§1)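 Cryopreserved PHH plated 24 h, infected with HBV at 200 GE/cell plus 4% PEG8000 for 24 h, then sandwich-cultured 72 h with 0.25 mg/mL matrix gel. Compounds at varied concentrations applied twice at 72-h intervals. Supernatant HBsAg and HBeAg measured by AlphaLISA with specific antibodies.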

HBsAg = experiment: PHH natural infection assay, HBsAg (alphalisa); format: cell-based, HBV; settings: Hepatitis B virus, Hepatocyte, read-out: HBsAg IC50, HBV-infected primary human hepatocytes, supernatant, alphalisa
Summary of the method: as §1

[1] = Cytotoxicity in PHH natural infection assay (Cell Counting Kit-8); format: cell-based; settings: HBV-infected primary human hepatocytes, CCK8
Summary of the method: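 HBV-infected primary human hepatocytes (200 GE/cell, 4% PEG8000, 24 h), sandwich-cultured 72 h, then given compound-containing medium twice at 72 h intervals. Cytotoxicity read by CCK-8 at end of treatment.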

Structure (SMILES) | IC50 (HBeAg) | IC50 (HBsAg) | CC50 at 144 h [1]
O=C(NC1CC2(C1)CC(c1nc3cc(Cl)ccc3o1)C2)c1ccnc(S(=O)(=O)C2CNC2)c1 (stereo not drawn) [Example 98, 2-(Azetidin-3-ylsulfonyl)-N-[6-(5-chloro-1,3-benzoxazol-2-yl)spiro[3.3]heptan-2-yl]pyridine-4-carboxamide] | 3.08 µM | 3.59 µM | > 10 µM
CC(=O)NS(=O)(=O)c1cc(C(=O)NC2CC3(C2)CC(c2nc4cc(Cl)ccc4o2)C3)ccn1 (stereo not drawn) [Example 99, 2-(Acetylsulfamoyl)-N-[6-(5-chloro-1,3-benzoxazol-2-yl)spiro[3.3]heptan-2-yl]pyridine-4-carboxamide] | 1.33 µM | 2.1 µM | > 10 µM
O=C(NC1CC2(C1)CC(c1nc3cc(Cl)ccc3o1)C2)c1ccnc(S(=O)(=O)CC2CC2)c1 (stereo not drawn) [Example 100, N-[6-(5-chloro-1,3-benzoxazol-2-yl)spiro[3.3]heptan-2-yl]-2-(cyclopropylmethylsulfonyl)pyridine-4-carboxamide] | 0.44 µM | 0.59 µM | > 10 µM
NC(=O)c1cc(C(=O)NC2CC3(C2)CC(c2nc4cc(Cl)ccc4o2)C3)ccn1 (stereo not drawn) [Example 101, N4-[6-(5-chloro-1,3-benzoxazol-2-yl)spiro[3.3]heptan-2-yl]pyridine-2,4-dicarboxamide] | 0.22 µM | 0.32 µM | > 100 µM
CNC(=O)c1cc(C(=O)NC2CC3(C2)CC(c2nc4cc(Cl)ccc4o2)C3)ccn1 (stereo not drawn) [Example 102, N4-[6-(5-chloro-1,3-benzoxazol-2-yl)spiro[3.3]heptan-2-yl]-N2-methyl-pyridine-2,4-dicarboxamide] | 2.28 µM | 2.69 µM | > 10 µM
CN(C)C(=O)c1cc(C(=O)NC2CC3(C2)CC(c2nc4cc(Cl)ccc4o2)C3)ccn1 (stereo not drawn) [Example 103, N4-[6-(5-chloro-1,3-benzoxazol-2-yl)spiro[3.3]heptan-2-yl]-N2,N2-dimethyl-pyridine-2,4-dicarboxamide] | 4.02 µM | 5.63 µM | > 10 µM

— US20230286968A1, “ARYLOXAZOLO SPIRAL RING DERIVATIVES FOR THE TREATMENT AND PROPHYLAXIS OF HEPATITIS B VIRUS INFECTION” (Hoffmann-La Roche Inc., priority 2020, published 2023)
